Assay results published in patent US20030229105A1, “Treatment of autoimmune disorders” (Cyclacel Limited, priority 2002, published 2003).
“Also recorded” adds a separate entry of the source.

What was measured:
[1] = tested on: uninfected T and monocytic cells; assay: Initial test of cdk inhibitors on uninfected cells (data not shown)
[2] = tested on: HIV-1 NSI (THA/92/001, subtype E envelope); assay: p24 gag ELISA of PHA-activated PBMC infected with NSI field isolate; assay type: cell-based; settings: 10 μM drug postinfection
Protocol: We chose HIV-1 stably integrated cells, lymphocytic ACH2 and 8E5 cell lines, as well as monocytic U1 cells (and their uninfected parental counterparts CEM and U937, respectively) for our initial studies, since viral transcription could be activated and scored through signals, such as Tat, TNF-α or phorbol myristate acetate (PMA) and PHA. We first activated viruses in these cells with TNF-α (10 ng/ml) at 37° C. for 2 h, followed by washing, and then we incubated cells with 10 μM concentrations of each drug. […]. A somewhat similar pattern of drug inhibition was also seen when ACH2, 8E5, and U1 cells were treated with either Tat or a combination of PMA and PHA to induce full-length viral transcripts. […]. […] We next examined the effect of all three drugs on primary HIV-1 field isolates of SI and NSI strains. Activated PBMC were infected with two independent HIV-1 viral strains of SI (UG/92/029, subtype A envelope) and NSI (THA/92/001, subtype E envelope). […].
Five days later, the supernatants were collected, and the amount of newly synthesized HIV-1 was measured by p24 antigen assay. […]
Media from HIV-1 infected cell lines were centrifuged to pellet the cells, and supernatants were collected and diluted to 1:100 to 1:1,000 in RPMI 1640 prior to ELISA. […] The p24 gag antigen level was analyzed by using the HIVAG-1 Monoclonal Antibody Kit (Abbott Laboratories, Diagnostics Division). […]

[3] = tested on: HIV-1 LTR (Tat transactivation); assay: HIV-1 LTR-CAT reporter, Tat-activated transcription in CEM cells; assay type: cell-based; settings: LTR-CAT plus pcTat (CMV-driven Tat)
Excerpt: Activated transcription by Tat was also examined in CEM cells using the LTR-CAT reporter and pcTat (CMV-driven Tat). […] .
FIG. 3 discloses inhibition of HIV-1 basal and activated transcription by cdk inhibitors. […] The graphs at the bottom of the figure represent the effect of various concentrations of general cell cycle inhibitors (hydroxyurea and nocodazole) on CEM cells. (B) Inhibition of activated transcription in CEM cells was examined using transfected HIV-1 LTR-CAT, together with pcTat plasmid. (C) Experiment similar experiment to that in panel B, except that pcTat plasmid was replaced with E. coli-expressed and purified Tat protein
Lymphocyte CEM (12D7) cells were grown to mid-log phase and were processed for protein electroporation according to a previously published procedure (24). Only one modification was introduced, in which the cells were electroporated at 230 V and plated in 10 ml of complete RPMI 1640 medium for 18 h prior to harvest and chloramphenicol acetyl transferase (CAT) assay. […] Cells were freeze-thawed three times with intermittent vortexing and then incubated for 3 min at 68° C., followed by centrifugation. Supernatants were transferred to 1.5-ml Eppendorf tubes and centrifuged, and the supernatants were used for the determination of protein concentration. CAT assays were performed with 2 μg of protein according to the method of Gorman et al. (15).

CEM (uninfected) cells = assay: Cell cycle analysis (PI staining, FACS) of uninfected CEM cells; assay type: cell-based; settings: TNF-α, 10 μM, 48 h; for effect on cell cycle progression: uninfected CEM
Excerpt: (§1) We next examined the cellular effects of these drugs on the cell cycle progression of HIV-1-infected and uninfected cells. […]. […] Therefore, the selective killing mechanism by this particular drug might partially be responsible for the decrease in HIV-1 titers observed in the infected cells. We also reasoned that Purvalanol A may be toxic to uninfected induced cells by increasing the G2/M population and the increase of apoptosis, as is evident in FIG. 2A. […] U937 is the uninfected monocytic parental cell line, and U1 is the U937 cell line infected with two copies of integrated HIV-1, only one of which is wild type for viral progeny formation. […]. This is in contrast to many apoptosis-inducing agents, such as TNF-α DNA-damaging agents (gamma irradiation, mitomycin C [6]), or sodium butyrate, in which cases the apoptosis of HIV-1-infected cell accompanies massive production and the release of infectious HIV-1 virions.
(§2) Forty-eight hours later, cells were collected, fixed with 70% ethanol, PI stained, and analyzed by FACS. (B and C) Experiments similar to the experiment in panel A were performed in ACH2 (B) or U1 (C) cells (both latently HIV-1 infected) plus TNF-α, followed by ethanol fixation, PI staining, and analysis by FACS. Apoptosis (Apop) represents a mixture of cells from either G1, S, or G2/M with characteristics of cell death.
(§3) For fluorescence-activated cell sorting (FACS) analysis, cells were stained with a cocktail of propidium iodide (PI) buffer (PBS with Ca^2+ and Mg^2+, RNase A [10 μg/ml], NP-40 [0.1%], and PI [50 μg/ml]) followed by cell-sorting analysis. FACS data acquired were analyzed by ModFit LT software (Verity Software House, Inc.).

[4] = tested on: ACH2 cells (latently HIV-1 infected); assay: Cell cycle analysis (PI staining, FACS) of HIV-1-infected ACH2 cells; assay type: cell-based; settings: 10 μM; for apoptosis in HIV-1-infected cells: ACH2 plus TNF-α, 48 h (FIG. 2B)
Excerpt: as §1, §2, §3

Row | Compound | toxicity in uninfected cells [1] | block of viral replication (p24 gag), NSI strain [2] | inhibition of Tat transactivation (CAT activity) [3] | effect on cell cycle progression (CEM (uninfected) cells) | apoptosis in HIV-1-infected cells [4] | apoptosis (CEM (uninfected) cells; CEM cells) [%] | apoptosis ([4]; ACH2 cells, TNF-α, 48 h) [%]
1 | CC(C)[C@H](CO)Nc1nc(Nc2cccc(Cl)c2)c2ncn(C(C)C)c2n1 [Purvalanol A] | lack of toxicity | effectively blocked viral replication | impaired | showed an increase in the G2/M population and induced apoptosis | increased apoptosis |  | 
2 | Roscovitine | lack of toxicity | effectively blocked viral replication | impaired; also recorded: inhibited activated transcription better than the other two analogs | did not change the cell cycle progression significantly | increased apoptosis | 4.9 | 30.21
